Results on 67 compounds are retold here after US20090143279A1 (priority 2007, published 2009).

Several values for one entry are separate records, joined by “and”; a condition that tells them apart may be missing. Equal entries are not always repeated. Where a SMILES comes first, the peptide text is derived from it.

The test system of one test is cytochrome c. It is filed as cell-based, mouse.
Settings: not given
As to `NCCCC[C@H](N[C@@H](CCc1ccccc1)C(=O)O)C(=O)N1CCC[C@H]1C(=O)O` [lisinopril], the “cyt c (composite Z-score vs DMSO)” value was 0.265 and 0.412.

`CC1CCC(C(C)C)C(O)C1` (centres unmarked) [menthol] gave a cyt c of −0.074.

As to `CN1CCCCC1CCN1c2ccccc2Sc2ccc([S+](C)[O-])cc21` (centres unmarked) [mesoridazine], the “cyt c (composite Z-score)” value was −0.121.

Take `CN(C)C(=N)N=C(N)N` [metformin]: the “cyt c (composite Z-score vs DMSO)” value is listed as 0.597.

Turning to `Cn1cc[nH]c1=S` [methimazole], the “cyt c (composite Z-score vs DMSO)” value worked out at 1.745 and the “cyt c (composite Z-score)” value was −0.372.

With `Cc1cccc(C)c1OCC(C)N` (centres unmarked) [mexiletine], the cyt c is 1.114.

`CN1CCN2c3ccccc3Cc3ccccc3C2C1` (centres unmarked) [mianserin] had a cyt c of 0.027.

`CN1CCN2c3ccccc3Cc3ccccc3C2C1` (centres unmarked) [mianserine]: the cyt c is listed as 0.473.

The compound `CN(C/C=C/c1ccccc1)Cc1cccc2ccccc12` [naftifine] displayed a cyt c of 0.645.

Take `Oc1ccc2c3c1O[C@H]1[C@@H](O)CC[C@@]4(O)[C@@H](C2)N(CC2CCC2)CC[C@]314` [nalbuphine]: the cyt c came out at 0.276 and the “cyt c (composite Z-score vs DMSO)” value is on record as −0.613.

As to `C=CCN1CC[C@]23c4c5ccc(O)c4O[C@H]2C(=O)CC[C@@]3(O)[C@H]1C5` [naloxone], the cyt c was 0.362 and 0.610.

In the case of `COc1ccc(CCC(=O)c2c(O)cc(O[C@@H]3O[C@H](CO)[C@@H](O)[C@H](O)[C@H]3O[C@@H]3O[C@@H](C)[C@H](O)[C@@H](O)[C@H]3O)cc2O)cc1O` [neohesperidin dihydrochalcone], the cyt c is 0.454.

Consider `COc1ccc2c3c1O[C@H]1[C@@H](O)CC=C4[C@@H](C2)N(C)CC[C@]431` [neopine], for which the cyt c was found to be 0.421.

For the compound `O=C(O)c1cccnc1` [niacin], the “cyt c (composite Z-score vs DMSO)” value was 0.736 and 1.132.

As to `CC1CS(=O)(=O)CCN1/N=C/c1ccc([N+](=O)[O-])o1` (centres unmarked) [nifurtimox], the cyt c was 0.004.

`COc1ccc(-c2cc(=O)c3c(OC)c(OC)c(OC)c(OC)c3o2)cc1OC` [nobiletin] yielded a cyt c of 0.396.

Regarding `C#C[C@]1(O)CC[C@H]2[C@@H]3CCC4=CC(=O)CC[C@@H]4[C@H]3CC[C@@]21C` [norethindrone], the cyt c amounted to 0.903 and the “cyt c (composite Z-score vs DMSO mock-treated wells)” value was determined as 0.056.

Take `C#C[C@]1(O)CC[C@H]2[C@@H]3CCC4=C(CCC(=O)C4)[C@H]3CC[C@@]21C` [norethynodrel]: the cyt c was −0.145 and the “cyt c (composite Z-score vs DMSO mock-treated wells)” value is listed as −0.058.

Consider `CNCCC=C1c2ccccc2CCc2ccccc21` [nortriptyline], for which the “cyt c (composite Z-score vs DMSO)” value was 0.157 and 0.136.

In the case of `CC1(C)CC[C@]2(C(=O)O)CC[C@]3(C)C(=CC[C@@H]4[C@@]5(C)CC[C@H](O)C(C)(C)[C@@H]5CC[C@]43C)[C@@H]2C1` [oleanolic acid], the cyt c is on record as 0.866.

`C=CCOc1ccccc1OCC(O)CNC(C)C` (centres unmarked) [oxprenolol] yielded a cyt c of 0.047.

For `CCN(CC)CC#CCOC(=O)C(O)(c1ccccc1)C1CCCCC1` (centres unmarked) [oxybutynin], the cyt c is −0.352.

Compound `COc1ccc(C(C)=O)c(O)c1` [paeonol] yielded a cyt c of 0.306.

Compound `Oc1ccc(Cl)cc1` [parachlorophenol] came in with a cyt c of 0.036.

`[H]/N=C(/N)N/C(=N/[H])NCCc1ccccc1` [phenformin] came in with a cyt c of 0.241.

`CC(N)C(O)c1ccccc1` (centres unmarked) [phenylpropanolamine]: the cyt c was determined as 0.947.

Consider `CCC1(c2ccccc2)C(=O)NCNC1=O` [primidone], for which the cyt c is 0.296 and 0.193.

As to `CCC(=O)c1ccc2c(c1)N(CC(C)N(C)C)c1ccccc1S2` (centres unmarked) [propiomazine], the cyt c is −0.368.

Take `CC(C)c1cccc(C(C)C)c1O` [propofol]: the “cyt c (composite Z-score vs DMSO)” value came to 0.242.

For `CCCc1cc(=O)[nH]c(=S)[nH]1` [propylthiouracil], the cyt c was 0.762 and 0.717.

`CNCCCC1c2ccccc2C=Cc2ccccc21` [protriptyline]: the “cyt c (composite Z-score)” value is given as −1.335.

Turning to `NC(=O)c1ncn([C@@H]2O[C@H](CO)[C@@H](O)[C@H]2O)n1` [ribavirin], the cyt c was −0.336.

With `CO[C@H]1/C=C/O[C@@]2(C)Oc3c(C)c(O)c4c(O)c(c(/C=N/N5CCN(C)CC5)c(O)c4c3C2=O)NC(=O)/C(C)=C\C=C\[C@H](C)[C@H](O)[C@@H](C)[C@@H](O)[C@@H](C)[C@H](OC(C)=O)[C@@H]1C` [rifampicin], the cyt c was found to be 0.319.

Consider `Cc1nc2n(c(=O)c1CCN1CCC(c3noc4cc(F)ccc34)CC1)CCCC2` [risperidone], for which the “cyt c (composite Z-score vs DMSO)” value turned out to be 0.243.

Consider `CN(CCOc1ccc(CC2SC(=O)NC2=O)cc1)c1ccccn1` (centres unmarked) [rosiglitazone], for which the cyt c is reported as −0.121.

As for `O=C1NS(=O)(=O)c2ccccc21` [saccharin], the “cyt c (composite Z-score vs DMSO)” value was 0.336.

Turning to `CO[C@H]1C[C@H](O[C@@H]2/C(C)=C/C[C@@H]3C[C@@H](C[C@]4(CC[C@H](C)[C@@H](C5CCCCC5)O4)O3)OC(=O)[C@@H]3C=C(C)/C(=N/O)[C@H]4OC/C(=C\C=C\[C@@H]2C)[C@]43O)O[C@@H](C)[C@@H]1O` [selamectin], the cyt c is 0.343.

Consider `COc1cc(C2Oc3cc([C@H]4Oc5cc(O)cc(O)c5C(=O)[C@@H]4O)ccc3OC2CO)ccc1O` (some centres unmarked) [silybin], for which the cyt c is reported as 0.150.

Consider `O=C([O-])c1ccccc1O.[Na+]` [sodium salicylate], for which the cyt c was 0.607.

On to `O=C1C[C@@H]2OCC=C3CN4CC[C@]56c7ccccc7N1[C@H]5[C@H]2[C@H]3C[C@H]46` [strychnine], for which the “cyt c (composite Z-score vs DMSO mock-treated wells)” value was determined as 0.031.

Consider `Nc1c2c(nc3ccccc13)CCCC2` [tacrine], for which the “cyt c (composite Z-score vs DMSO)” value is recorded as −0.250.

The same test, now with this note: composite Z-score vs mock-treated (DMSO) wells; concentration of each compound in μM.
In the case of `NCCCC[C@H](N)C(=O)N[C@@H](Cc1ccccc1)C(=O)N[C@@H](Cc1ccc(O)cc1)C(=O)O` [lysylphenylalanyltyrosine] (H-Lys-Phe-Tyr-OH), the cyt c was 0.240.

On to `C[C@H]1[C@H](C)CC[C@]2(C(=O)O)CC[C@]3(C)C(=CC[C@@H]4[C@@]5(C)C[C@@H](O)[C@H](O)[C@@](C)(CO)[C@@H]5[C@H](O)C[C@]43C)[C@H]12` [madecassic acid], for which the cyt c was found to be 0.241.

In the case of `CC(=O)O[C@]1(C(C)=O)CC[C@H]2[C@@H]3C=C(C)C4=CC(=O)CC[C@]4(C)[C@H]3CC[C@@]21C` [megestrol acetate], the cyt c stood at 0.810.

Regarding `Cc1cccc(C)c1NC(=O)C1CCCCN1C` (centres unmarked) [mepivacaine], the cyt c was −0.084.

`C=N[C@@H](C(=O)N[C@@H]1C(=O)N2[C@@H]1SC(C)(C)[C@@H]2C(=O)O)c1ccccc1` [metampicillin] had a cyt c of 0.821.

`COc1ccccc1N1CCN(CC(O)COc2cccc3ccccc23)CC1` (centres unmarked) [naftopidil] yielded a cyt c of 0.382.

`COC(=O)Nc1nc2ccc([S+]([O-])c3ccccc3)cc2[nH]1` (centres unmarked) [oxfendazole, reference compound] yielded a cyt c of −0.224.

On to `O=CC=Cc1ccc(O)cc1` [p-hydroxycinnamaldehyde], for which the cyt c is listed as −0.079.

The compound `N[C@@H](Cc1ccccc1)C(=O)N[C@@H](Cc1ccc(O)cc1)C(=O)O` [phenylalanyltyrosine] (H-Phe-Tyr-OH) showed a cyt c of −0.342.

In turn, `CCc1ccc(CCOc2ccc(CC3SC(=O)NC3=O)cc2)nc1` (centres unmarked) [pioglitazone] gave a cyt c of −0.742.

Consider `CC[C@H](C)C(=O)O[C@H]1C[C@H](O)C=C2C=C[C@H](C)[C@H](CC[C@@H](O)C[C@@H](O)CC(=O)O)[C@H]21` [pravastatin, reference compound], for which the cyt c was determined as 0.972.

Take `CCC(NC(C)C)C(O)c1ccc(O)c2[nH]c(=O)ccc12` (centres unmarked) [procaterol]: the cyt c is listed as −0.168.

With `CC(O)Cn1cnc2c1c(=O)n(C)c(=O)n2C` (centres unmarked) [proxyphylline], the cyt c is on record as −0.574.

`CC(=O)SCC(Cc1ccccc1)C(=O)NCC(=O)OCc1ccccc1` (centres unmarked) [racecadotril] gave a cyt c of −0.249.

In turn, `O=C(NC(Cc1cc(=O)[nH]c2ccccc12)C(=O)O)c1ccc(Cl)cc1` (centres unmarked) [rebamipide] displayed a cyt c of −0.372.

On to `CO[C@H]1/C=C/O[C@@]2(C)Oc3c(C)c(O)c4c(O)c(c5c(nc6cc(C)ccn65)c4c3C2=O)NC(=O)/C(C)=C\C=C\[C@H](C)[C@H](O)[C@@H](C)[C@@H](O)[C@@H](C)[C@H](OC(C)=O)[C@@H]1C` [rifaximin], for which the cyt c is given as −0.471.

In the case of `CC(NCCc1ccc(O)cc1)C(O)c1ccc(O)cc1` (centres unmarked) [ritodrine], the cyt c is on record as −0.072.

In the case of `C[C@@H]1O[C@@H](OC[C@H]2O[C@@H](Oc3c(-c4ccc(O)c(O)c4)oc4cc(O)cc(O)c4c3=O)[C@H](O)[C@@H](O)[C@@H]2O)[C@H](O)[C@H](O)[C@H]1O` [rutoside], the cyt c is −0.012.

`O=C(O)c1cn(-c2ccc(F)cc2)c2cc(N3CCNCC3)c(F)cc2c1=O` [sarafloxacin] showed a cyt c of 0.290.

In the case of `O=C1C=C2C=C[C@@H]3C[C@@]2(O1)[C@H]1CCCCN31` [securinine], the cyt c is recorded as −0.481.

As for `CC(C)CC(N(C)C)C1(c2ccc(Cl)cc2)CCC1` (centres unmarked) [sibutramine], the cyt c is 0.351.

In turn, `CC(C)NCC(O)c1ccc(NS(C)(=O)=O)cc1` (centres unmarked) [sotalol] had a cyt c of 0.501.

Take `CC[C@H]1OC(=O)[C@H](C)C(=O)[C@H](C)[C@@H](O[C@@H]2O[C@H](C)C[C@H](N(C)C)[C@H]2O)[C@](C)(OC)C[C@@H](C)C(=O)[C@H](C)[C@H]2N(CCCCn3cnc(-c4cccnc4)c3)C(=O)O[C@]12C` [telithromycin]: the cyt c is reported as −0.023.

The test is the same for the next values; noted with them: normalized score (composite Z-score vs DMSO mock-treated wells); compound concentration (μM).
In turn, `CCN[C@@H]1C[C@H](N)[C@@H](O[C@H]2OC(CN)=CC[C@H]2N)[C@H](O)[C@H]1O[C@H]1OC[C@](C)(O)[C@H](NC)[C@H]1O` [netilmicin] returned a cyt c of 0.156.

Consider `CC(C)(C)NC[C@H](O)COc1ccccc1C1CCCC1` [penbutolol], for which the cyt c is listed as 0.099.

The compound `CCOC(=O)Oc1c(OC)cc(C(=O)O[C@@H]2C[C@@H]3CN4CCc5c([nH]c6cc(OC)ccc56)[C@H]4C[C@@H]3[C@H](C(=O)OC)[C@H]2OC)cc1OC` [syrosingopine] displayed a cyt c of 1.051.
